Activity calls are given as the source filed them. The rule behind the calls is not given here.
What was measured:
Mus musculus [1] = assay: Anticonvulsant activity against maximal electroshock-induced seizures in mouse at 30 mg/kg, ip after 0.5 hrs; assay type: functional, organism-based; design: dose 30 mg/kg
Mus musculus [2] = assay: Anticonvulsant activity against maximal electroshock-induced seizures in mouse at 300 mg/kg, ip after 0.5 hrs; assay type: functional, organism-based; design: dose 300 mg/kg
Mus musculus [3] = assay: Anticonvulsant activity against scMet-induced seizures in mouse at 30 mg/kg, ip after 0.5 hrs; assay type: functional, organism-based; design: dose 30 mg/kg
Mus musculus [4] = assay: Neurotoxicity in mouse at 100 mg/kg, ip after 4 hrs by rotarod test; assay type: toxicity, organism-based; design: dose 100 mg/kg, route intraperitoneal; details: in vivo
Mus musculus [5] = assay: Anticonvulsant activity against maximal electroshock-induced seizures in mouse at 100 mg/kg, ip after 0.5 hrs; assay type: functional, organism-based; design: dose 100 mg/kg
Mus musculus [6] = assay: Neurotoxicity in mouse at 30 mg/kg, ip after 0.5 hrs by rotarod test; assay type: toxicity, organism-based; design: dose 30 mg/kg, route intraperitoneal; details: in vivo
Mus musculus [7] = assay: Anticonvulsant activity against maximal electroshock-induced seizures in mouse at 300 mg/kg, ip after 4 hrs; assay type: functional, organism-based; design: dose 300 mg/kg
Mus musculus [8] = assay: Anticonvulsant activity against scMet-induced seizures in mouse at 300 mg/kg, ip after 0.5 hrs; assay type: functional, organism-based; design: dose 300 mg/kg
Mus musculus [9] = assay: Anticonvulsant activity against scMet-induced seizures in mouse at 100 mg/kg, ip after 4 hrs; assay type: functional, organism-based; design: dose 100 mg/kg
Mus musculus [10] = assay: Anticonvulsant activity against scMet-induced seizures in mouse at 100 mg/kg, ip after 0.5 hrs; assay type: functional, organism-based; design: dose 100 mg/kg
Mus musculus [11] = assay: Anticonvulsant activity against scMet-induced seizures in mouse at 30 mg/kg, ip after 4 hrs; assay type: functional, organism-based; design: dose 30 mg/kg
Mus musculus [12] = assay: Neurotoxicity in mouse at 30 mg/kg, ip after 4 hrs by rotarod test; assay type: toxicity, organism-based; design: dose 30 mg/kg, route intraperitoneal; details: in vivo
Mus musculus [13] = assay: Neurotoxicity in mouse at 100 mg/kg, ip after 0.5 hrs by rotarod test; assay type: toxicity, organism-based; design: dose 100 mg/kg, route intraperitoneal; details: in vivo
Mus musculus [14] = assay: Anticonvulsant activity against maximal electroshock-induced seizures in mouse at 30 mg/kg, ip after 4 hrs; assay type: functional, organism-based; design: dose 30 mg/kg
Mus musculus [15] = assay: Neurotoxicity in mouse at 300 mg/kg, ip after 4 hrs by rotarod test; assay type: toxicity, organism-based; design: dose 300 mg/kg, route intraperitoneal; details: in vivo
Mus musculus [16] = assay: Anticonvulsant activity against scMet-induced seizures in mouse at 300 mg/kg, ip after 4 hrs; assay type: functional, organism-based; design: dose 300 mg/kg
Mus musculus [17] = assay: Neurotoxicity in mouse at 300 mg/kg, ip after 0.5 hrs by rotarod test; assay type: toxicity, organism-based; design: dose 300 mg/kg, route intraperitoneal; details: in vivo
Mus musculus [18] = assay: Anticonvulsant activity against maximal electroshock-induced seizures in mouse at 100 mg/kg, ip after 4 hrs; assay type: functional, organism-based; design: dose 100 mg/kg
Mus musculus [19] = organism: Mus musculus; assay: Protective index, ratio of TD50 for mouse by rotarod test to ED50 for mouse by MES test; assay type: functional
Mus musculus [20] = assay: Anticonvulsant activity against scMet-induced seizures in ip dosed mouse; assay type: functional
Mus musculus [21] = organism: Mus musculus; assay: Protective index, ratio of TD50 for mouse by rotarod test to ED50 for mouse by scMET test; assay type: functional
Mus musculus [22] = assay: Anticonvulsant activity against maximal electroshock-induced seizures in ip dosed mouse; assay type: functional
Rattus norvegicus [23] = assay: Anticonvulsant activity against maximal electroshock-induced seizures in rat at 30 mg/kg, po after 0.25 hrs; assay type: functional, organism-based; design: dose 30 mg/kg
Rattus norvegicus [24] = assay: Neurotoxicity in rat at 30 mg/kg, po after 1 hr by rotarod test; assay type: toxicity, organism-based; design: dose 30 mg/kg, route oral; details: in vivo
Rattus norvegicus [25] = assay: Anticonvulsant activity against maximal electroshock-induced seizures in rat at 30 mg/kg, po after 0.5 hrs; assay type: functional, organism-based; design: dose 30 mg/kg
Rattus norvegicus [26] = assay: Neurotoxicity in rat at 30 mg/kg, po after 4 hrs by rotarod test; assay type: toxicity, organism-based; design: dose 30 mg/kg, route oral; details: in vivo
Rattus norvegicus [27] = assay: Neurotoxicity in rat at 30 mg/kg, po after 2 hrs by rotarod test; assay type: toxicity, organism-based; design: dose 30 mg/kg, route oral; details: in vivo
Rattus norvegicus [28] = assay: Anticonvulsant activity against maximal electroshock-induced seizures in rat at 30 mg/kg, po after 2 hrs; assay type: functional, organism-based; design: dose 30 mg/kg
Rattus norvegicus [29] = assay: Neurotoxicity in rat at 30 mg/kg, po after 0.5 hrs by rotarod test; assay type: toxicity, organism-based; design: dose 30 mg/kg, route oral; details: in vivo
Rattus norvegicus [30] = assay: Neurotoxicity in rat at 30 mg/kg, po after 0.25 hrs by rotarod test; assay type: toxicity, organism-based; design: dose 30 mg/kg, route oral; details: in vivo
Rattus norvegicus [31] = assay: Anticonvulsant activity against maximal electroshock-induced seizures in rat at 30 mg/kg, po after 1 hr; assay type: functional, organism-based; design: dose 30 mg/kg
Rattus norvegicus [32] = assay: Anticonvulsant activity against maximal electroshock-induced seizures in rat at 30 mg/kg, po after 4 hrs; assay type: functional, organism-based; design: dose 30 mg/kg
[33] = Neurotoxicity in ip dosed mouse by rotarod test; assay type: toxicity, organism-based; details: in vivo
[34] = Displacement of [3H]nitrendipine from voltage-dependent calcium channel in rat brain cortex by scintillation counting; assay type: tissue-based

## CC(CO)NC(=O)c1ccc2oc3ccccc3c(=O)c2c1 (stereo not drawn)
Mus musculus [1]
  Activity: inactive
Mus musculus [2]
  Activity: inactive
Mus musculus [3]
  Activity: inactive
Mus musculus [4]
  Neurotoxicity: Not Active
Mus musculus [5]
  Activity: inactive
Mus musculus [6]
  Neurotoxicity: Not Active
Mus musculus [7]
  Activity: inactive
Mus musculus [8]
  Activity: inactive
Mus musculus [9]
  Activity: inactive
Mus musculus [10]
  Activity: inactive
Mus musculus [11]
  Activity: inactive
Mus musculus [12]
  Neurotoxicity: Not Active
Mus musculus [13]
  Neurotoxicity: Not Active
Mus musculus [14]
  Activity: inactive
Mus musculus [15]
  Neurotoxicity: Not Active
Mus musculus [16]
  Activity: inactive
Mus musculus [17]
  Neurotoxicity: Not Active
Mus musculus [18]
  Activity: inactive

## O=C1NC(=O)C(c2ccccc2)(c2ccccc2)N1 [PHENYTOIN]
Mus musculus [19]
  PI: 6.6
Mus musculus [20]
  ED50: > 50 mg/kg
Mus musculus [21]
  PI: <0.9
Mus musculus [22]
  ED50: 6.48 mg/kg

## CC[C@@H](CO)NCc1ccc2oc3cc(Cl)ccc3c(=O)c2c1
Mus musculus [1]
  Activity: inactive
Rattus norvegicus [23]
  Activity: inactive
Mus musculus [2]
  Activity: Active
Mus musculus [3]
  Activity: inactive
Rattus norvegicus [24]
  Neurotoxicity: Not Active
Mus musculus [5]
  Activity: Active
Rattus norvegicus [25]
  Activity: inactive
Mus musculus [6]
  Neurotoxicity: Not Active
Mus musculus [7]
  Activity: Active
Rattus norvegicus [26]
  Neurotoxicity: Not Active
Mus musculus [8]
  Activity: inactive
Mus musculus [9]
  Activity: inactive
Rattus norvegicus [27]
  Neurotoxicity: Not Active
Mus musculus [10]
  Activity: inactive
Rattus norvegicus [28]
  Activity: inactive
Mus musculus [11]
  Activity: inactive
Mus musculus [12]
  Neurotoxicity: Not Active
Rattus norvegicus [29]
  Neurotoxicity: Not Active
Mus musculus [14]
  Activity: inactive
Mus musculus [15]
  Neurotoxicity: Neurotoxic
Mus musculus [16]
  Activity: inactive
Mus musculus [17]
  Neurotoxicity: Neurotoxic
Rattus norvegicus [30]
  Neurotoxicity: Not Active
Mus musculus [18]
  Activity: inactive

## CC(C)(CCO)NCc1ccc2oc3cc(Cl)ccc3c(=O)c2c1
Mus musculus [1]
  Activity: inactive
Rattus norvegicus [23]
  Activity: inactive
Mus musculus [2]
  Activity: Active
Mus musculus [3]
  Activity: inactive
Rattus norvegicus [24]
  Neurotoxicity: Not Active
Mus musculus [4]
  Neurotoxicity: Not Active
Rattus norvegicus [25]
  Activity: inactive
Rattus norvegicus [31]
  Activity: inactive
Mus musculus [7]
  Activity: inactive
Rattus norvegicus [26]
  Neurotoxicity: Not Active
Mus musculus [8]
  Activity: inactive
Mus musculus [9]
  Activity: inactive
Rattus norvegicus [27]
  Neurotoxicity: Not Active
Rattus norvegicus [32]
  Activity: inactive
Mus musculus [10]
  Activity: inactive
Rattus norvegicus [28]
  Activity: inactive
Mus musculus [11]
  Activity: inactive
Mus musculus [12]
  Neurotoxicity: Not Active
Rattus norvegicus [29]
  Neurotoxicity: Not Active
Mus musculus [13]
  Neurotoxicity: Not Active
Mus musculus [14]
  Activity: inactive
Mus musculus [15]
  Neurotoxicity: Not Active
Mus musculus [16]
  Activity: inactive
Rattus norvegicus [30]
  Neurotoxicity: Not Active
Mus musculus [18]
  Activity: inactive

## O=C(NCCCCO)c1ccc2oc3ccccc3c(=O)c2c1
Mus musculus [1]
  Activity: inactive
Mus musculus [2]
  Activity: inactive
Mus musculus [3]
  Activity: inactive
Mus musculus [4]
  Neurotoxicity: Not Active
Mus musculus [5]
  Activity: inactive
Mus musculus [6]
  Neurotoxicity: Not Active
Mus musculus [7]
  Activity: inactive
Mus musculus [8]
  Activity: inactive
Mus musculus [9]
  Activity: inactive
Mus musculus [10]
  Activity: inactive
Mus musculus [11]
  Activity: inactive
Mus musculus [12]
  Neurotoxicity: Not Active
Mus musculus [13]
  Neurotoxicity: Not Active
Mus musculus [14]
  Activity: inactive
Mus musculus [15]
  Neurotoxicity: Not Active
Mus musculus [16]
  Activity: inactive
Mus musculus [17]
  Neurotoxicity: Not Active
Mus musculus [18]
  Activity: inactive

## CC(CCl)NCc1ccc2oc3cc(Cl)ccc3c(=O)c2c1.Cl (racemic)
Mus musculus [1]
  Activity: inactive
Mus musculus [2]
  Activity: inactive
Mus musculus [3]
  Activity: inactive
Rattus norvegicus [24]
  Neurotoxicity: Not Active
Mus musculus [4]
  Neurotoxicity: Not Active
Mus musculus [5]
  Activity: inactive
Rattus norvegicus [25]
  Activity: inactive
Rattus norvegicus [31]
  Activity: inactive
Mus musculus [6]
  Neurotoxicity: Not Active
Mus musculus [7]
  Activity: inactive
Rattus norvegicus [26]
  Neurotoxicity: Not Active
Mus musculus [8]
  Activity: inactive
Mus musculus [9]
  Activity: inactive
Rattus norvegicus [27]
  Neurotoxicity: Not Active
Mus musculus [10]
  Activity: inactive
Rattus norvegicus [28]
  Activity: inactive
Mus musculus [11]
  Activity: inactive
Mus musculus [12]
  Neurotoxicity: Not Active
Rattus norvegicus [29]
  Neurotoxicity: Not Active
Mus musculus [14]
  Activity: inactive
Mus musculus [16]
  Activity: inactive
Rattus norvegicus [30]
  Neurotoxicity: Not Active
Mus musculus [18]
  Activity: inactive

## C[C@H](CO)NCc1ccc2oc3cc(Cl)ccc3c(=O)c2c1
Mus musculus [1]
  Activity: inactive
Mus musculus [19]
  PI: 6.23
Rattus norvegicus [23]
  Activity: inactive
Mus musculus [2]
  Activity: Active
Mus musculus [3]
  Activity: inactive
Rattus norvegicus [24]
  Neurotoxicity: Not Active
Mus musculus [4]
  Neurotoxicity: Not Active
Rattus norvegicus [25]
  Activity: inactive
Rattus norvegicus [31]
  Activity: inactive
Mus musculus [6]
  Neurotoxicity: Not Active
Mus musculus [7]
  Activity: Active
Rattus norvegicus [26]
  Neurotoxicity: Not Active
Mus musculus [8]
  Activity: inactive
Mus musculus [9]
  Activity: inactive
Rattus norvegicus [27]
  Neurotoxicity: Not Active
Mus musculus [10]
  Activity: inactive
[33]
  TD50: 483 mg/kg
Mus musculus [11]
  Activity: inactive
Mus musculus [12]
  Neurotoxicity: Not Active
Rattus norvegicus [29]
  Neurotoxicity: Not Active
Mus musculus [14]
  Activity: inactive
Mus musculus [15]
  Neurotoxicity: Not Active
Mus musculus [20]
  ED50: > 500 mg/kg
Mus musculus [21]
  PI: <0.96
Mus musculus [16]
  Activity: inactive
Rattus norvegicus [30]
  Neurotoxicity: Not Active
Mus musculus [22]
  ED50: 77.4 mg/kg
Mus musculus [18]
  Activity: inactive

## CC[C@@H](CO)NCCOc1c(C)cccc1C
Mus musculus [19]
  PI: 4.55
Mus musculus [22]
  ED50: 7.57 mg/kg

## CCCC(CCC)C(=O)[O-].[Na+] [VALPROATE SODIUM]
[33]
  TD50: 483 mg/kg
Mus musculus [20]
  ED50: 290 mg/kg

## COC(=O)C1=C(C)NC(C)=C(C(=O)OC)C1c1ccccc1[N+](=O)[O-] [NIFEDIPINE]
[34]
  EC50: 1 nM

## NC(=O)CNC(=O)c1ccc2oc3ccccc3c(=O)c2c1
Mus musculus [1]
  Activity: inactive
Mus musculus [2]
  Activity: inactive
Mus musculus [3]
  Activity: inactive
Mus musculus [4]
  Neurotoxicity: Not Active
Mus musculus [5]
  Activity: inactive
Mus musculus [6]
  Neurotoxicity: Not Active
Mus musculus [7]
  Activity: inactive
Mus musculus [8]
  Activity: inactive
Mus musculus [9]
  Activity: inactive
Mus musculus [10]
  Activity: inactive
Mus musculus [11]
  Activity: inactive
Mus musculus [12]
  Neurotoxicity: Not Active
Mus musculus [13]
  Neurotoxicity: Not Active
Mus musculus [14]
  Activity: inactive
Mus musculus [15]
  Neurotoxicity: Not Active
Mus musculus [16]
  Activity: inactive
Mus musculus [17]
  Neurotoxicity: Not Active
Mus musculus [18]
  Activity: inactive

Reference: ChEMBL document CHEMBL1155915, “Anticonvulsant activity of some xanthone derivatives” (Bioorg Med Chem, 2008)
